Where a SMILES comes first, the peptide text is derived from it. Bridges are numbered along the chain shown (N, C = ends).
Legend:
[1] = Measurement of emulsion activity (light transmittance); type: physicochemical; details: emulsion containing the labelled fat or oil; Fig. 6
Method: After heating at 40 - 45°C for 5 minutes, the mixture was stirred with a Polytron homogenizer at a maximum speed for 1 minute to obtain an emulsion (which contained 5 wt% of the oil).
Each of the emulsions was put into a test tube, which was readjusted to a vertical position and left to stand at room temperature. At given time intervals, 0.2-ml portions of each emulsion were collected from the bottom of the test tube and mixed with 3.8 ml of an aqueous solution of 0.1% sodium dodecylsulfate. The light transmittance of each sample was measured under various conditions and the results of measurements are shown in Figs. 3 - 6.

[2] = Absorption of vitamin A through lymphatic vessels after injection of emulsions into the loop of small intestines; type: in vivo, Wistar male rats
Method: Wistar male rats each weighing about 400 g were starved for 24 hours. The starved rats were anesthetized by intraperitoneal administration of pentobarbital. Thereafter, the rats were incised in the belly and silicon cannulas were inserted into the area between the pylorus of the stomach and the duodenum and into the ileocecal area. Through the upper cannula, liquid drugs (5 ml) composed of the emulsions prepared in Example 1 were injected into the loop of small intestines (duodenum, jejunum and ileum) and the cannula was closed with a clamp.
Blood and lymph fluid were collected from the hip artery and the lymph in the thoracic duct at given time intervals and the concentrations of vitamin A in the two fluids were measured. A similar experiment was conducted on biliary fistula rats from which bile was excreted through a cannula inserted into the bile duct, and comparison was made with intact rats which had not received such a treatment.
[…] After extraction with cyclohexane, the concentration of vitamin A in each sample was measured by fluorometry at 480 nm with fluorescence excited at 340 nm. After being absorbed by the small intestines, vitamin A forms chylomicron, the greater part of which is known to be transferred into the lymph system, not the blood system.

[3] = Oral absorption of lipid-soluble drugs reduced to microspheres with MFGM; details: drug reduced to microspheres with MFGM
[4] = Concentration of eel calcitonin in blood after injection into the duodenum (Example 11); type: in vivo, Wistar male rats; details: male, Wistar, rat, 50 ug per rat, 100 µg/ml, 0.5 ml into the duodenum
Method: Wistar male rats each weighing ca. 200 g were cannulated at the duodenum and tail vein under anesthetization with either and restrained in Bollman cages. […] A control group was injected with 0.5 ml of PBS(-), and a calcitonin control group was injected with 0.5 ml of a solution of calcitonin in phosphate buffer saline (100 µg/ml). Blood samples were taken from these control-groups according to the same schedule as in the case of the emulsion treated group. Thirty minutes before the administration of calciton, calcium chloride in physiological saline was administered intraperitoneally in an amount of 60 mg/kg in order to stimulate the secretion of endogenous calcitonin. Each rat group consisted of 6 animals.

[5] = rat, in vivo
Method: Wistar male rats each weighing ca. 300 g were starved overnight. Thereafter, their skin above the right common carotid artery was incised and a cannula was inserted into the artery. […] The so prepared emulsion was administered orally to the rats. […] The dose of hydrocortisone was 1.5 mg/kg. After hydrocortisone administration, blood samples were taken at regular time intervals. Feces and urine were collected and the rats were killed 49 hours after the administration. The digestive tracts, their contents and various organs were separated and the content of hydrocortisone in each site was determined by radioactivity measurement.

## CCCCCCCC/C=C\CCCCCCCC(=O)O [oleic acid]
[1]
  increase in emulsion activity: highest increase
[2]; intact rats, emulsion in labelled fat or oil, content 5%, vitamin A 2.5 mg per rat, Fig. 9
  concentration of vitamin A in lymph (ranking): lowest level

## COC1=C(OC)C(=O)C(CCCCCCCCCCO)=C(C)C1=O [avan]
[3]
  ability of MFGM to promote the absorption: also observed

## CCCCCCCC/C=C\CCCCCCCC(=O)OCC(O)CO (stereo not drawn) [monoolein]
[1]
  increase in emulsion activity: least increase

## vitamin A
[2]; rat, in vivo
  concentration of vitamin A in lymph: dropped to very low levels
  vitamin A in the blood: hardly detectable

## CC(C)C[C@H](NC(=O)[C@H](CCCCN)NC(=O)CNC(=O)[C@H](CC(C)C)NC(=O)[C@@H](NC(=O)[C@@H]1CSSC[C@H](N)C(=O)N[C@@H](CO)C(=O)N[C@@H](CC(N)=O)C(=O)N[C@@H](CC(C)C)C(=O)N[C@@H](CO)C(=O)N[C@@H]([C@@H](C)O)C(=O)N1)C(C)C)C(=O)N[C@@H](CO)C(=O)N[C@@H](CCC(N)=O)C(=O)N[C@@H](CCC(=O)O)C(=O)N[C@@H](CC(C)C)C(=O)N[C@@H](Cc1c[nH]cn1)C(=O)N[C@@H](CCCCN)C(=O)N[C@@H](CC(C)C)C(=O)N[C@@H](CCC(N)=O)C(=O)N[C@H](C(=O)N[C@@H](Cc1ccc(O)cc1)C(=O)N1CCC[C@H]1C(=O)N[C@@H](CCCNC(=N)N)C(=O)N[C@H](C(=O)N[C@@H](CC(=O)O)C(=O)N[C@H](C(=O)NCC(=O)N[C@@H](C)C(=O)NCC(=O)N[C@H](C(=O)N1CCC[C@H]1C(N)=O)[C@@H](C)O)C(C)C)[C@@H](C)O)[C@@H](C)O [Calcitonin treated] (H-CSNLSTCVLGKLSQELHKLQTYPRTDVGAGTP-NH2; disulfide 1-7 (inferred); N-terminus and C-terminus assumed)
[4]; 0
  level at 0 h: 0.1 ± 0.08 ng/mL
[4]; 30 min.
  level at 0.5 h: 0.7 ± 0.09 ng/mL
[4]; 60 min.
  level at 1 h: 0.7 ± 0.22 ng/mL
[4]; 90 min.
  level at […]: 0.8 ± 0.31 ng/mL
[4]; 120 min.
  level at 2 h: 0.6 ± 0.4 ng/mL

## Tween 80
[5]
  residual in the body: 12.41 % of dose

Reference: patent EP0385445A2, “Method of forming a suspension and composition formed by said method” (Horikoshi, Isamu, priority 1989, dated 1990)
